Data from patent US20110301239A1, “USE OF NOVEL LIPID MEDIATORS TO INHIBIT ANGIOGENESIS” (The Brigham and Women's Hospital, Inc., priority 2008, published 2011).

Tests used:
PMN infiltration = test: Peritonitis model, PMN infiltration; format: in vivo
[1] = test system: suture-induced corneal NV; test: Suture-induced inflammatory corneal angiogenesis (slit-lamp NV score, CD31/LYVE-1 vessel density); format: in vivo, BALB/c mice; settings: for angiogenic response (corneal neovessels by slit lamp biomicroscopy): 2-week time course, subconjunctival every 48 h, relative to vehicle control; for significant changes in the density of lymphatic vessels / BV density (CD31high/LYVE-1−): day 14 after suture placement; for significant changes in the density of lymphatic vessels: relative to vehicle controls; for BV density (CD31high/LYVE-1−): mean±SEM, n=6, vehicle 23.18±1.12%
Experimental: (§1) Six to eight-week-old male BALB/c (Taconic Farms, Germantown, N.Y.) mice were used in all experiments. All experimental protocols were approved by the Schepens Eye Research Institute Animal Care and Use Committee, and all animals were treated according to the Association for Research in Vision and Ophthalmology Statement for the Use of Animals in Ophthalmic and Vision Research.
(§2) The standard model for induction of inflammatory corneal NV is associated with development of intrastromal vessels in close association with a mixed-cell (primarily neutrophilic) infiltrate.^14,15 Three interrupted sutures (11-0 nylon, Sharpoint; Vanguard, Houston, Tex.) were placed intrastromally with two stromal incursions extending over 120° of the corneal circumference each to induce inflammatory corneal NV, which is also associated with significant LA, as described previously.^14 The corneas were followed by slit-lamp biomicroscopy for corneal NV development. NV was graded between 0 and 3, with increments of 0.5, using a grid system per each corneal quadrant based on the centripetal extent of the neovascular branches from the limbus. Scores for each quadrant then summed to derive the NV index (range 0 to 12) for each eye, as previously described.^14
(§3) BALB/c mice were randomized to receive RvD1, RvE1 or vehicle (normal saline) by subconjunctival injection in a masked fashion after suture or hydron pellet placement. The compounds were administered at a dose of 100 ng/10 μl per mouse every 48 h after suture or pellet placed. For these experiments, RvD1 and RvE1 were prepared by total organic synthesis as reported previously,^17,18 in the total organic synthesis core for NIH P-50 DE0169191. The physical properties were monitored routinely via LC/MS/MS matching the reported biological and physical properties prior to analysis in present experiments.
(§4) Full thickness corneal tissue or 8 μm-frozen sections were fixed in acetone for 15 minutes at room temperature. To block non-specific staining, anti-FcR mAb ([…], FcγIII/II receptor) or 10% goat serum was used before primary antibodies or isotype-matched control antibodies were applied at 4° C. overnight. Thereafter, samples were incubated with secondary antibodies at RT. Each step was followed by three thorough washings in PBS for 5-10 minutes. Finally, the samples were covered with mounting medium (Vector Laboratories, Burlingame, Calif.) and analyzed by epifluorescence microscopy (Eclipse E800; Nikon, Tokyo, Japan). The following antibodies were used: FITC-conjugated rat anti-mouse CD31 (Santa Cruz Biotechnology, Santa Cruz, Calif.), purified rat anti-mouse neutrophil (NIMP-R14, Abcam, Cambridge, Mass.), purified rat anti-mouse F4/80 (Novus Biologicals, Littleton, Colo.) and purified rabbit anti-mouse LYVE-1 (Abcam, Cambridge, Mass.). The secondary antibodies were Rodamine-conjugated donkey anti-rabbit IgG and Rodamine-conjugated goat anti-rat IgG (Santa Cruz Biotechnology, Santa Cruz, Calif.). Isotype controls included FITC-conjugated rat IgG2a, purified rat IgG2b, and purified rabbit IgG (Santa Cruz Biotechnology, Santa Cruz, Calif.).
(§5) To quantify corneal angiogenesis, digital pictures of corneal flat-mounts were taken using an image analysis system (Spot Image Analysis, Diagnostic Instruments, Sterling Heights, Mich.). The areas covered by CD31^high/LYVE-1^−-vessels (blood vessels) or CD31^lowLYVE-1^high vessels (lymphatics) were measured morphometrically using NIH Image J software (version 1.34s; http://rsb.info.nih.gov/ij). The total corneal area was outlined using the inner-most vessel of the limbal arcade as the border. The vessel density was calculated by the proportion of neovascularized area to the whole corneal area.

VEGF-A = test: Real-time PCR of VEGF-A mRNA in suture-inflamed corneas; format: in vivo, BALB/c mice; settings: 24 h and 72 h after suture placement, vs vehicle-treated group
Experimental: as §1, with “Research. […]” for “Research.”
(§6) BALB/c mice were randomized to receive RvD1, RvE1 or vehicle (normal saline) by subconjunctival injection in a masked fashion after suture or hydron pellet placement. […] The physical properties were monitored routinely via LC/MS/MS matching the reported biological and physical properties prior to analysis in present experiments. […]
(§7) A combined-method for total RNA isolation was employed, using Trizol (Invitrogen Corp., Carlsbad, Calif.) and RNeasy MinElute Spin Columns (Qiagen, Valencia, Calif.), as described previously.^21 Reverse transcription of total RNA was conducted using oligo(dT)20 primer and Superscript™ III Reverse Transcriptase (Invitrogen, Carlsbad, Calif.). […] The mean density of each band was measured by using NIH image J software. […]

neutrophils = test: Neutrophil infiltration in suture-inflamed corneas (anti-neutrophil NIMP-R14 staining of cross-sections); format: in vivo, BALB/c mice; settings: for neutrophils in inflamed cornea: 100 ng/10 μl subconjunctival at 0 h and 48 h, mean±SEM, n=3; for inhibition of neutrophils recruitment into the inflamed corneas: at 24 and 72 h, compared to vehicle-treated group, p<0.05
Experimental: as §1, §2, §3, §4

VEGFR-3 = test: Real-time PCR of VEGFR-3 mRNA in suture-inflamed corneas; format: in vivo, BALB/c mice; settings: relative to vehicle-treated controls
Experimental: as §1, with “Research. […]” for “Research.”
as §6, §7

[2] = test system: VEGF-A-induced corneal HA and LA; test: Corneal micropocket assay, VEGF-A pellet; format: in vivo, BALB/c mice; settings: day 7; for BV density: VEGF-A micropellet, mean±SEM, n=4, vehicle 14.75±3.8%, not significantly lower; for reduction of LA: stimulated by VEGF-A micropellet
Experimental: as §1
(§8) The corneal micropocket assay in mice and quantification of the resultant NV has been described previously.^16,17 In brief, 0.3 μl of hydron pellets (IFN Sciences, New Brunswick, N.J.) containing 30 ng of murine IL-1β (R&D Systems, Minneapolis, Minn.) or 200 ng of VEGF-A (gift from BRB Preclinical Repository, National Cancer Institute) were prepared and implanted into the corneal stroma of male BALB/c mice. After 7 days the animals were sacrificed and the corneas were harvested for quantitative analysis of HA and LA.
as §3
(§9) Full thickness corneal tissue or 8 μm-frozen sections were fixed in acetone for 15 minutes at room temperature. To block non-specific staining, anti-FcR mAb ([…], FcγIII/II receptor) or 10% goat serum was used before primary antibodies or isotype-matched control antibodies were applied at 4° C. overnight. Thereafter, samples were incubated with secondary antibodies at RT. Each step was followed by three thorough washings in PBS for 5-10 minutes. Finally, the samples were covered with mounting medium (Vector Laboratories, Burlingame, Calif.) and analyzed by epifluorescence microscopy (Eclipse E800; Nikon, Tokyo, Japan). […]
as §5, with “The total corneal area was outlined using the inner-most vessel of the limbal arcade as the border.” left out

VEGF-C = test: Real-time PCR of VEGF-C mRNA in suture-inflamed corneas; format: in vivo, BALB/c mice; settings: 24 h and 72 h after suture placement, vs vehicle-treated group
Experimental: as §1, with “Research. […]” for “Research.”
as §6, §7

VEGFR-2 = test: Real-time PCR of VEGFR-2 mRNA in suture-inflamed corneas; format: in vivo, BALB/c mice; settings: 24 h and 72 h after suture placement, vs vehicle-treated group
Experimental: as §1, with “Research. […]” for “Research.”
as §6, §7

VEGF-D = test: Real-time PCR of VEGF-D mRNA in suture-inflamed corneas; format: in vivo, BALB/c mice; settings: relative to vehicle-treated controls
Experimental: as §1, with “Research. […]” for “Research.”
as §6, §7

TNF-α = test: Real-time PCR of TNF-α mRNA in suture-inflamed corneas; format: in vivo, BALB/c mice; settings: vs vehicle
Experimental: as §1, §2, §3
Corneas were carefully dissected to ensure that the conjunctival and iris tissues were not included. To extract mRNA from whole-thickness corneas, two corneas were pooled as a sample in each group. To extract mRNA from corneal epithelial and stroma-endothelial layers separately, intact corneas were placed in 30 μl of RNA stabilization reagent (RNAlater, Qiagen, Valencia, Calif.) at 4° C. overnight and then stored at −30° C. for 2-3 days. […]
as §7

[3] = test system: IL-1β-induced corneal HA and LA; test: Corneal micropocket assay, IL-1β pellet; format: in vivo, BALB/c mice; settings: day 7; for BV density: IL-1β micropellet, mean±SEM, n=4, vehicle 26.8±2.0%, significantly impaired; for reduction of LA: stimulated by IL-1β micropellet
Experimental: as §1, §8, §3, §9
as §5, with “The total corneal area was outlined using the inner-most vessel of the limbal arcade as the border.” left out

macrophages = test: Macrophage infiltration in suture-inflamed corneas (anti-F4/80 staining of cross-sections); format: in vivo, BALB/c mice; settings: 72 h after suture placement; 100 ng/10 μl subconjunctival; mean±SEM, n=3; vehicle 83±3
Experimental: as §1, with “Research. […]” for “Research.”
BALB/c mice were randomized to receive RvD1, RvE1 or vehicle (normal saline) by subconjunctival injection in a masked fashion after suture or hydron pellet placement. […] The physical properties were monitored routinely via LC/MS/MS matching the reported biological and physical properties prior to analysis in present experiments.
Full thickness corneal tissue or 8 μm-frozen sections were fixed in acetone for 15 minutes at room temperature. […] Finally, the samples were covered with mounting medium (Vector Laboratories, Burlingame, Calif.) and analyzed by epifluorescence microscopy (Eclipse E800; Nikon, Tokyo, Japan). […]

IL-1α = test: Real-time PCR of IL-1α mRNA in suture-inflamed corneas; format: in vivo, BALB/c mice; settings: 24 h and 72 h after suture placement, vs vehicle
Experimental: as §1, with “Research. […]” for “Research.”
as §6, §7

[4] = 24 h after suture placement, vehicle 81±6
[5] = 72 h after suture placement, vehicle 57±4

Row | SMILES | angiogenic response (corneal neovessels by slit lamp biomicroscopy) [1] | significant changes in the density of lymphatic vessels [1] | BV density (CD31high/LYVE-1−) [1] | mRNA expression of VEGF-A (VEGF-A) | neutrophils in inflamed cornea (neutrophils; [4]) | neutrophils in inflamed cornea (neutrophils; [5]) | inhibition of neutrophils recruitment into the inflamed corneas (neutrophils) | mRNA expression of VEGFR-3 (VEGFR-3) | BV density [2] | reduction of LA [2] | mRNA expression of VEGF-C (VEGF-C) | mRNA expression of VEGFR-2 (VEGFR-2) | mRNA expression of VEGF-D (VEGF-D) | increases in TNF-α expression (mRNA) (TNF-α; 24 h after suture placement) | increases in TNF-α expression (mRNA) (TNF-α; 72 h after suture placement) | BV density [3] | reduction of LA [3] | macrophage in inflamed cornea (macrophages) | expression of IL-1α (mRNA) (IL-1α) | also measured
1 | CCC(O)/C=C/C=C\C/C=C\C/C=C\C=C\[C@@H](O)CCCC(=O)O (mixture of isomers) [5S, 18 (+/−)-diHEPA] | – | – | – | – | – | – | – | – | – | – | – | – | – | – | – | – | – | – | – | anti-inflammatory activity, PMN infiltration (PMN infiltration): downregulation of PMN infiltration; potency compared with Resolvin E1 (PMN infiltration; at an equal dose amount): equipotent to Resolvin E1
2 | CC/C=C\C[C@H](O)/C=C/C=C\C=C\C=C\[C@@H](O)[C@@H](O)C/C=C\CCC(=O)O [RvD1, 7S,8R,17S-trihydroxy-4Z,9E,11E,13Z,15E,19Z-docosahexaenoic acid] | significant suppression | not observed | 8.4±0.39% | lower mRNA expressions | 62±4 cells/section | 40±3 cells/section | ~30% | not significantly altered | 10.9±2.3% | no significant reduction | lower mRNA expressions | lower mRNA expressions | not significantly altered | significantly suppressed | not at 72 h | 17.1±2.4% | no significant reduction | 57±4 cells/section | not significantly altered | –
3 | CC[C@@H](O)/C=C/C=C\C[C@@H](O)/C=C/C=C/C=C\[C@@H](O)CCCC(=O)O [RvE1, 5S,12R,18R-trihydroxy-6Z,8E,10E,14Z,16E-EPA] | significant suppression | not observed | 10.92±0.53% | lower mRNA expressions | 52±4 cells/section | 41±4 cells/section | ~30% | not significantly altered | 14.1±2.2% | no significant reduction | lower mRNA expressions | lower mRNA expressions | not significantly altered | significantly suppressed | significant lowering | 18.6±2.2% | no significant reduction | 49±7 cells/section | not significantly altered | –
